Test results: patent US20190292155A1, “THERAPEUTIC INHIBITORY COMPOUNDS” (LifeSci Pharmaceuticals, Inc., priority 2016, published 2019)
pEC50, pIC50: −log10 of the molar value.

Legend:
[1] = test system: alternative pathway (AP) hemolytic activity; assay: AP hemolysis inhibition assay; format: cell-based; conditions: Normal Human Serum, chicken or rabbit erythrocytes
Protocol: The ability of the compounds disclosed herein to inhibit alternative pathway (AP) hemolytic activity was determined. […] In 100 μL reaction system, 1300 to […] final concentration of Normal Human Serum (CompTech) was incubated with compound for 15 min at 37° C. Then 2×10^6 cells/well of chicken or rabbit erythrocytes in assay buffer were added and incubated for an additional 60 min at 37° C. Positive control (100% lysis) consists of serum and RBC, and negative control (0% lysis) consists of assay buffer and RBC only. Samples were centrifuged at 2000 g for 5 min, and supernatants collected. […] Percentage lysis in each sample is calculated relative to positive control (100% lysis).

[2] = biological target: T1, human complement factor D (Homo sapiens, UniProt P00746); assay: In vitro enzyme inhibition of human complement factor D (Z-Lys-SBzl/DTNB, A405); format: biochemical; conditions: biochemical assay, substrate Z-Lys-SBzl; read-out: CFD IC50
T1 construct: purchased R&D Systems 1824-SE
T1 sequence (P00746 26-253): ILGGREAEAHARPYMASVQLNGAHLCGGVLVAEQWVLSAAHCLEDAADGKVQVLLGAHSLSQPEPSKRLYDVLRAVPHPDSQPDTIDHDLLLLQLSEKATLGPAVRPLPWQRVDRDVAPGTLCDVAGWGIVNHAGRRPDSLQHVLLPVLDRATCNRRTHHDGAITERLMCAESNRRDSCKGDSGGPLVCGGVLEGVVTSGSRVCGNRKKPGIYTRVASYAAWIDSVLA
In short: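 Buffer 50 mM Tris/HCl pH 7.5, 1 M NaCl, 0.5% final DMSO; compounds pre-incubated with enzyme 5 min at room temperature, then Z-Lys-SBzl with DTNB added (each diluted to 200 μM before addition).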

| Compound | pEC50 [1] | pIC50 [2] |
| --- | --- | --- |
| NC(=O)n1nc(CC(=O)N(CC(=O)Nc2cccc(Cl)n2)C2CCC2)c2ccccc21 [Example 20, 3-(2-((2-((6-chloropyridin-2-yl)amino)-2-oxoethyl)(cyclobutyl)amino)-2-oxoethyl)-1H-indazole-1-carboxamide] | 6.00 to 7.00 | 6.00 to 7.00 |
| CC(C)N(CC(=O)NCc1cccc(Cl)c1F)C(=O)Nc1cn(C(N)=O)c2ccccc12 [Example 50, 3-(3-(2-((3-chloro-2-fluorobenzyl)amino)-2-oxoethyl)-3-isopropylureido)-1H-indole-1-carboxamide] | 5.00 to 6.00 | 6.00 to 7.00 |
